Measurements reported in patent US20100255020A1, “METHOD FOR INDUCING CYTOTOXIC T-CELLS, CYTOTOXIC T-CELL INDUCERS, AND PHARMACEUTICAL COMPOSITIONS AND VACCINES EMPLOYING THEM” (NEC CORPORATION, priority 2007, published 2010).
Where no end group is shown, it is not given here.

Key:
[1] = tested on: peptide-loaded target cells (C1R-A24, RA24, T2); experiment: 51Cr release assay of PBMC killing activity against peptide-loaded target cells; type: cell-based, human
Experimental: Target cells were labeled with ^51Cr and loaded with HLA-binding peptide of interest. 5,000 or 10,000 cells/well of target cells were placed in 96-well U-bottom plate, and then, PBMCs having been stimulated twice in vitro were added thereto as a responder. Cells were incubated at 37° C. for 5 hours and ^51Cr released from the damaged cells during the incubation was measured, and % specific lysis was calculated. As target cells C1R-A24 or RA24 cells were used as a target when reactivity to HLA-A*2402 binding peptides were examined, and T2 cells were used as a target and incubation was carried out for 2 hours after addition of responder cells. Percent specific lysis was calculated as follows. % specific lysis=(test release-spontaneous release)/(total release-spontaneous release)×100.

[2] = tested on: IFN-γ-producing cells in peripheral blood mononuclear cells; experiment: ELISPOT of patients' PBMCs before and after W10 peptide immunization; type: cell-based, human
Experimental: In order to compare the cytotoxicity of peripheral blood mononuclear cells between that before administration of 5×10̂8 cells of whole-cell pertussis vaccine and 3 mg of W10 peptide to that after administering it three times, peripheral blood mononuclear cells were cultured with the immunizing peptide under conditions described later, and the number of cells that produced IFN-γ in a peptide-dependent manner were counted. The cells used for the ELISPOT assay are also described later.
The results are shown in FIG. 6 (response of PBMC of patients having HLA-A*2402), FIG. 7 (response of patients having HLA-A*0201), and FIG. 8 (response of patients having HLA-A*0206). The abscissa denotes the peptide that was bound to antigen presenting cells (in the figures, referred to as APCs (antigen presenting cells)), and the ordinate denotes the number of INF-γ-producing cells per 1×10̂4 cells. The response of peripheral blood mononuclear cells one week after three-time immunizations is shown with closed bars, and the response of peripheral blood mononuclear cells collected immediately before immunization is shown with open bars. […]
Peripheral blood mononuclear cells (PBMC) were stimulated in vitro once a week for a total of three times and then, the number of cells that produced IFN-γ in response to the antigen peptide were counted. […]

[3] = tested on: prostate-specific antigen (PSA); experiment: Prostate tumor marker PSA during W10 peptide immunotherapy; type: in vivo, human
Experimental: After the gradual increase the dose was fixed to 3 mg of W10 peptide+Wc and immunotherapy was continued. […] The day when 1 mg of W10 peptide on its own was first administered was presented as day 0. Arrows with dotted line indicates the period when 3 mg of W10 without Wc was injected for safety test (W10). The period where Wc was further added to W10 is also indicated with arrows with solid line (W10+Wc). […] Therefore, osteolytic lesions were measured as the size of tumors. […] Around May 2008, PSA gradually started to increase again, and pain started in the right femur. From the end of July 2008, a taxotere+Predonin therapy was started. W10+Wc immunotherapy was continued along with chemotherapy.
Immunotherapy was started with 3 mg W10 peptide while monitoring safety, then dose escalation was put forward with W10 peptide 1 mg+Wc, followed by 3 mg of W10 peptide+Wc. Eventually, the dose was fixed at this level and weekly immunization was continued. […] The day the immunization was started with 3 mg of W10 without Wc was set as day 0. […] For about half a year, PSA was stable at less than 0.1 (FIG. 14 a). […] When the immunotherapy was resumed, PSA decreased. After this incident, PSA started to show gradual increase. […] The size of a pubic bone metastatic tumor has been maintained within SD for 37 weeks on the RECIST standard so far (FIG. 14 b). […]

[4] = tested on: HLA-A*2402 positive cell lines that express WT1 naturally (KAZZ, KCL22, KH88, MEG01); experiment: Reactivity of WT1 peptide-specific cell lines toward tumor cells (IFN-γ ELISPOT); type: cell-based, human; details: cell lines established from HLA-A*2402 positive patients, FIG. 5
Description: Reactions of cell lines established from different patients are arranged in a bar graph.

Sequence: ALLPAVPSL [W10]
- Peptide-reactive cytolytic cells in PBMCs of patients ([1]; HLA-A*0201 binding peptides, T2 targets): contain cytolytic cells that recognize
- Peptide-reactive cytolytic cells in PBMCs of patients ([1]; HLA-A*2402 binding peptides, FIG. 9a and b): cytolytic cells include those reactive
- Number of W10-reactive IFN-γ-producing T-cells ([2]; patient KB07-006, after 1 mg W10 peptide for 3 weeks): increased
- Increase of cells producing IFN-γ in response to W10 peptide after immunization ([2]; patients with HLA-A*2402, HLA-A*0201 or HLA-A*0206, 3 mg W10 + Wc x3): often observed
- PSA ([3]; patient KB07-003, prostate cancer, stable for about half a year): less than 0.1
- PSA after starting immunotherapy ([3]; patient KB07-005, prostate cancer): around 0.04
- Reactivity of peptide-dependent cell line toward WT1-expressing cell lines compared with C1R-A24 [4]: tends to be higher although differences are small
